Test results as given in US11040119B2, “Compositions and methods for assessing neuromuscular function” (Biogen MA Inc., priority 2013, dated 2021).
Entries after “also recorded” stand apart in the source; their conditions may differ.

Legend:
[1] = Simultaneous dual-radiotracer SPECT/CT imaging of 99mTc-Sestamibi and 201Tl-Cl uptake; assay type: in vivo, mouse and rat; details: FIG. 1; for retention in muscle: i.v. single injection of both agents, imaging 3 hours later
Description: This example describes an imaging approach for assessing skeletal muscle health by administering ^99mTc-Sestamibi and ^201Tl—Cl both in a single intravenous injection and then simultaneously detecting their accumulation into skeletal muscle through SPECT imaging via distinct radiation energy windows, which are specific for each isotope. Through this approach, each imaging agent alone, as well as the change in uptake of one agent relative to the other, was measured, permitting evaluation of multiple physiological processes in muscle simultaneously.
Imaging agents (^99mTc-Sestamibi and ^201Tl-Chloride) were ordered from commercial radiopharmacies for calibration and delivery on each day of SPECT imaging. Imaging agents were administered by intravenous injection in the lateral tail-vein. Animals were returned to their cages after injection for the distribution period or placed directly on the imaging system for SPECT acquisition, depending on the imaging protocol and desired time-points. For the imaging session, subjects were anesthetized using a gas mixture of isoflurane and oxygen. In-vivo SPECT and CT data were acquired using the NanoSPECT/CT® (Bioscan, Washington, D.C.), a dual modality imaging system that combines a 4-headed SPECT camera with a computed tomography (CT) acquisition system on the same axis of rotation. During imaging, subjects were placed on a heated bed with integrated anesthesia delivery and bed heating. The animals' body temperatures were maintained at 36 to 37° C. for the duration of image acquisition. Each imaging time-point included three scans: a planar x-ray scout scan, an x-ray CT scan for anatomical reference (6-9 min., 45-65 KVp, 180 angular projections per FOV), and a SPECT scan (20-90 min., 20 angular projections per FOV). SPECT data were reconstructed using the HiSPECT processing module (Scivis GmbH, Gottingen, Germany). […] Uptake and concentration of radiotracer were quantified in select regions-of-interest (ROI) using the VivoQuant™ post-processing suite. […]

[2] = prepared radiopharmaceutical; cited from earlier work
[3] = in vivo; cited from earlier work
skeletal muscle [4] = assay: Effect of neuromuscular stimulation with edrophonium on 99mTc-Sestamibi and 201Tl-Cl uptake into muscle (SPECT/CT); assay type: in vivo, rats
Description: In order to assess the action of neuromuscular stimulation on ^99mTc-Sestamibi and ^201Tl—Cl uptake into muscle we used the acetylcholinesterase inhibitor edrophonium (0.2 mg/kg, i.v.) to enhance ongoing neuromuscular synaptic transmission. We used three different cohorts of animals (n=3). In one cohort we examined baseline neuromuscular activity by giving the ^99mTc-Sestamibi and ^201Tl—Cl (listed as m/t in figure) at time zero and acquiring images under brief isoflurane anesthesia at 30 minutes post injection. Another cohort received edrophonium injection immediately following the m/t dosing but prior to the imaging under anesthesia. The last cohort received the edrophonium 30 minutes prior to the m/t dosing. This approach standardized the anesthesia and imaging phase of the experiment while making the edrophonium dose timing the only variable.
FIG. 4 is an exemplary schematic diagram of an experiment assessing the impact of edrophonium on the pharmacokinetics of ^99mTc-Sestamibi and ^201Tl—Cl. ^99mTc-Sestamibi and ^201Tl—Cl were imaged in three cohorts of rats (n of 3 each): control/baseline; prior to injection of 0.2 mg/kg of edrophonium; following injection of 0.2 mg/kg of edrophonium. Whole body SPECT/CT images were collected 30 minutes post-injection of the mixed ^99mTc-Sestamibi and ^201Tl—Cl dose. The drugs' gamma emissions of the radioisotopes (^99mTc and ^201Tl) were collected in separate energy windows, permitting simultaneous imaging of the relevant radiopharmaceuticals. […] Thallium uptake was increased by the introduction of edrophonium in control rats as indicated qualitatively by brighter muscle uptake on a common scale.
However, either pre- or post-m/t, edrophonium dosing had no effect on ^99mTc-Sestamibi uptake into muscle. FIG. 6 depicts comparison of radiopharmaceutical uptake in skeletal muscle between two imaging paradigms. The ‘+’ represents subjects that received an edrophonium injection (i.v.) immediately after radiotracer administration. […] All other aspects of data collection were identical between the ‘+’ and ‘−’ scenarios. Quantitative units of radioactivity per volume was expressed as uptake: percent injected dose (% ID), activity (mCi, kBq).

skeletal muscle [5] = assay: Effect of continuous isoflurane anesthesia on muscle uptake of the two radiopharmaceutical agents (SPECT); assay type: in vivo; details: continuous anesthesia through 30 minute uptake period vs awake uptake period; right and left legs; FIG. 3
Description: Imaging agents (^99mTc-Sestamibi and ^201Tl-Chloride) were ordered from commercial radiopharmacies for calibration and delivery on each day of SPECT imaging. Imaging agents were administered by intravenous injection in the lateral tail-vein. Animals were returned to their cages after injection for the distribution period or placed directly on the imaging system for SPECT acquisition, depending on the imaging protocol and desired time-points. For the imaging session, subjects were anesthetized using a gas mixture of isoflurane and oxygen. In-vivo SPECT and CT data were acquired using the NanoSPECT/CT® (Bioscan, Washington, D.C.), a dual modality imaging system that combines a 4-headed SPECT camera with a computed tomography (CT) acquisition system on the same axis of rotation. During imaging, subjects were placed on a heated bed with integrated anesthesia delivery and bed heating. The animals' body temperatures were maintained at 36 to 37° C. for the duration of image acquisition. […] Uptake and concentration of radiotracer were quantified in select regions-of-interest (ROI) using the VivoQuant™ post-processing suite.
This need for imaging under anesthesia in animals is not necessary in human imaging studies. […] Quantitative units of radioactivity per volume was expressed as uptake: percent injected dose (% ID), activity (mCi, kBq). […]

[6] = edrophonium i.v. immediately after radiotracer administration vs none, FIG. 6

In the case of `[C-]#[N+]CC(C)(C)OC.[C-]#[N+]CC(C)(C)OC.[C-]#[N+]CC(C)(C)OC.[C-]#[N+]CC(C)(C)OC.[C-]#[N+]CC(C)(C)OC.[C-]#[N+]CC(C)(C)OC.[Tc]` [^99mTc-Sestamibi], the retention in muscle [1] is given as “consistent retention”, the stability [2] is given as 6 h and the biological half-life [3] is given as “long”. The extraction efficiency [3] was “high”.
For `[Cl][201Tl]` [^201Tl—Cl, ^201Thallium-Chloride], the retention in muscle [1] was “consistent retention” and the “muscle accumulation, extent relative to 99mTc-Sestamibi” value ([1]; i.v., imaging 3 hours post-injection) was “more widespread”.
In the case of `CC[N+](C)(C)c1cccc(O)c1` [edrophonium], the “99mTc-Sestamibi uptake into muscle” value (skeletal muscle [4]; edrophonium 0.2 mg/kg i.v., either pre- or post-m/t dosing, images 30 minutes post-injection) is reported as “no effect”, the “201Tl uptake into muscle” value (skeletal muscle [4]; edrophonium 0.2 mg/kg i.v., pre- or post-m/t dosing vs baseline, images 30 minutes post-injection, FIG. 5) is reported as “dramatically enhanced; also recorded: increased” and the “99mTc-Sestamibi uptake in skeletal muscle, statistical evaluation” value (skeletal muscle [4]; [6]) is reported as “not”. For the same compound, the “201Tl uptake in skeletal muscle, statistical evaluation” value (skeletal muscle [4]; [6]) was “highly significant edrophonium effect”.
With `FC(F)OC(Cl)C(F)(F)F` (centres unmarked) [isoflurane] the “accumulation of both agents (99mTc-Sestamibi and 201Tl-Cl) into muscle” value (skeletal muscle [5]) was “inhibited”.
In the case of ^99mTc-Teboroxime, the stability [2] is given as 6 h, the biological half-life [3] is given as “short” and the extraction efficiency [3] is given as “high”.
